EC50 data for one compound are collected here from patent publication US20170326249A1, “ANTIBODY-DRUG CONJUGATE OF AN ANTI-GLYPICAN-3 ANTIBODY AND A TUBULYSIN ANALOG, PREPARATION AND USES” (Bristol-Myers Squibb Company, priority 2016, published 2017).

pEC50: −log10 of the molar value.

Common to all, as to type: cell-based
The subject of test [1] is Hep3B hepatocellular carcinoma cells. Description: 3H thymidine incorporation proliferation assay, Hep3B. The following applies: Homo sapiens, 72 h. The protocol: (§1) The human tumor cell lines were obtained from the American Type Culture Collection (ATCC), P.O. Box 1549, Manassas, Va. 20108, USA, and cultured according to instructions from ATCC. Cells were seeded at 1.0×10^4 cells/well in 96-well plates. […] Plates were allowed to incubate for 72 h. The plates were pulsed with 1.0 μCi of ^3H-thymidine per well for the last 24 hours of the total incubation period, harvested, and read on a Top Count Scintillation Counter (Packard Instruments, Meriden, Conn.). The EC50 values—the ADC concentration at which cell proliferation was reduced by 50%—were determined using PRISM™ software, version 4.0 (GraphPad Software, La Jolla, Calif., USA).
Background: Dividing cells build labelled thymidine or BrdU into new DNA.

The test system of test [2] is HepG2 hepatocellular carcinoma cell line. Nature of the test: 3H thymidine incorporation proliferation assay, HepG2. The following applies: Homo sapiens; HepG2, Table 1. The protocol:
as §1
(§2) The EC50 so values, along with those against HepG2 and HuH7D12 hepatocellular carcinoma cell lines, are shown in Table 1, plus data for the drug alone (formula (II)). […] That is, release of the drug from the conjugate is efficient.

Test [3] deals with HuH7D12 hepatocellular carcinoma cell line. Description: 3H thymidine incorporation proliferation assay, HuH7D12. Conditions: Homo sapiens, Huh-7D12; HuH7D12, Table 1. On the procedure: as §1, §2
In test [4] the test system is H446 small-cell lung cancer cells. Description: 3H thymidine incorporation proliferation assay, H446. Conditions: Homo sapiens, NCI-H446, 72 h. On the procedure:
as §1

One may read the pEC50 as the negative decadic logarithm of the EC50, by convention in mol/L. The low end stands for a large EC50, the high end for a small EC50. Turning to `CCCN(C(=O)[C@@H](NC(=O)[C@H]1CCCCN1C)[C@@H](C)CC)[C@H](C[C@@H](OC(C)=O)c1nc(C(=O)N[C@@H](Cc2ccc(N)cc2)C[C@H](C)C(=O)O)cs1)C(C)C` [Unconjugated Drug (II)], the pEC50 in test [1] was 9.70; in test [2] it was 9.52; in test [3], 9.70; in test [4], 9.70.
